These results are taken from patent US11759530B2, “TKI permeability enhancers” (City of Hope, priority 2014, dated 2023).

Entries after “also recorded” stand apart in the source; their conditions may differ. Some results are limits rather than exact numbers.

In data set [1] the test system is NIH 3T3 mouse fibroblasts. The note with it: read-out: IC50 for TGF-b-dependent cellular growth in NIH 3T3 mouse fibroblasts; cited from earlier work.
In another data set the test system is mink lung cells. Conditions: read-out: IC50 for transcription activation in mink lung cells; cited from earlier work.
The test system of the next data set is CK1 (S. pombe). Conditions: cited from earlier work.
The test system of the next data set is IP3-K. The note with it: cited from earlier work.
Data set [2] relates to IL-1 production in human monocytes. The note with it: read-out: IC50 for inhibiting IL-1 production in human monocytes; cited from earlier work.
Another data set deals with PI3-Kα and δ. The note with it: read-out: IC50 for PI3-Kα and δ; unit given as mM; cited from earlier work.
The test system of data set [3] is androgen receptor (AR full length and AR variant 7) in LNCaP, LAPC-4, 22RV1 cells. The experiment in a line: Androgen receptor expression in prostate cancer cell lines. The format is cell-based. The protocol:
Panels A-C, Prostate cancer cell lines LNCaP (A), LAPC-4 (B), and 22RV1 (C) were treated with inhibitor at indicated concentrations for indicated incubation times. FL, AR full length; V7, AR variant 7.
(§1) FIG. 10: TKI synergizes AR-ASO against AR expression and the AR signal pathway. […] MTS assay of LNCaP treated for 3 days with 1 uM TKI or 1 uM AR-ASO (AR-ASO-1) in the presence of the titrations of the paired drug.
Similar results have been obtained with Bcl-2.

The subject of another data set is LNCaP cells. The experiment in a line: MTS cytotoxicity assay of TKI plus AR-ASO. Conditions: 3 days, 1 uM TKI or 1 uM AR-ASO with titration of the paired drug. Format: cell-based. The procedure: as §1
For orientation: Tetrazolium dyes change colour on reduction, which living cells bring about.

The test system of data set [4] is HCT-116 EGFP-miR21 tumor microspheroids. The experiment in a line: Oligo penetration into tumor microspheroids, confocal microscopy. The format is cell-based, human. The protocol:
HCT-116 cells were transfected with a plasmid that expresses EGFP under the control of mir-21. When the cells express endogenous mir-21, the expression of EGFP is silenced. These cells were grown into tumor microspheroids, which were treated with an anti-mir21 mix mer oligonucleotide under gymnotic conditions (i.e., no carriers, no conjugations). When the anti-mir21 mix mer (product of Santaris Pharma, Horsholm, Denmark) enters the cells, it prevents the binding of the endogenous mir21 to its complementary sites on the 3′UTR of the EGFP gene. EGFP is then expressed and the cells glow green. Applicants discovered, by confocal microscopy, that the penetration of the anti-mir21 into the tumor microspheroid was only approximately 3 cells deep. Applicants verified this by treating the microspheroids with a Cy5-labeled anti-Bcl-2 phosphorothioate LNA gapmer. Here again, the penetration was only about 3 cell layers deep. Applicants then wanted to increase the oligo penetration and increase the amount of EGFP produced per cell. Applicants then began to screen a library of tyrosine kinase inhibitors (TKIs). These were added (100 nm-1 uM) to the media in addition to the oligo. Applicants examined 4 TKIs: Sorafenib was ineffective. […] This work has tremendous practical utility as it provides a way of screening for active oligos in a non-animal model, and provides a way to improve oligo penetration in tumors.
The HCT-116 EGFP-miR21 stable, clonal cell line was used to create the microspheroids in 96-well hanging-drop plates (Perfecta 3D, Biometrix Inc., Ann Arbor, Mich.). Following trypsinization, the cells were lifted and re-suspended at a density of 3×10^5 cells in 300 μL DMEM (Irvine Scientific, Santa Ana, Calif., USA) supplemented with 10% fetal calf serum (Irvine Scientific), 1 mM L-glutamine, 5% non-essential amino acids. To improve the 3D structure of the spheroids, 2.5% Matrigel™ can be added to the cell seeding solution. […]
All microspheroids were incubated for additional 5 days and analyzed with a Zeiss confocal microscope. […]

The test system of data set [5] is HCT116-GFPmiR21 cells. The experiment in a line: Drug screen: EGFP reactivation by anti-miR21 oligo plus compound (ASO uptake and function). The format is cell-based, human. Conditions: for TKI effect on oligo penetration and EGFP produced per cell: TKI 100 nm-1 uM added to the media in addition to the oligo; for ASO uptake (eGFP activation), FIG. 3: anti-mir21 + drug.

The subject of data set [6] is HCT116-GFPmiR21 cells. The experiment in a line: ASO intracellular release: anti-miR21 pretreatment, wash, then compound. Conditions: then drug. The format is cell-based, human. The protocol:
A robotic screening of a library of tyrosine kinase inhibitors (TKIs) was performed. […] These compounds are under investigation with the aim of determining the mechanism and the lowest concentration required for maximal enhancement of ASO function. For the 14 compounds identified as active in the initial screen, EGFP reactivation was monitored every day for up to 6 days. To determine if any compound affected ASO intracellular release, cells were first treated with 1 μM anti-miR21 PS-mixmer. The next day the media was removed and cells were washed twice with PBS. After adding fresh media the cell were treated with 1 μM of each active compound. Since ASO uptake had already occurred, any enhancement of EGFP expression in active compound-treated cells would be an indication of improved ASO intracellular release.

In the case of `c1ccc(-c2n[nH]cc2-c2ccnc3ccccc23)nc1`, the figures for the IC50 (in data set [1]; in the data set with mink lung cells) were 89 nM and 47 nM, respectively. With `NC(=O)c1ccc(-c2nc(-c3ccc4c(c3)OCCO4)c(-c3ccccn3)[nH]2)cc1`, the half-inhibitory concentration (IC50) in the data set with CK1 (S. pombe) is […].

Consider `O=[N+]([O-])c1ccc(CNc2nc(NCc3cccc(C(F)(F)F)c3)nc3[nH]cnc23)cc1`, for which the IC50 in the data set with IP3-K was 10200 nM.

As for `CS(=O)(=O)c1ccc(-c2nc(-c3ccc(F)cc3)c(-c3ccncc3)[nH]2)cc1`, the IC50 in data set [2] is 200 nM.

Consider `O=C1NC(=O)/C(=C/c2ccc3c(c2)OC(F)(F)O3)S1`, for which, in the data set with PI3-Kα and δ, the IC50 is > 0.02 mM.

With `O=C1Nc2cc(Br)ccc2/C1=C1/Nc2ccccc2/C1=N/O` [Compound 6-BIO], in [3] (LNCaP, LAPC-4, 22RV1, AR full length and AR-V7), the Androgen receptor downregulation result is “can downregulate both forms; also recorded: downregulates”. For the same molecule, the “Synergy with AR antisense oligo against AR expression and AR signal pathway” value in data set [3] (combined with AR-ASO, LNCaP and LAPC-4, 2 days) is “synergistic; also recorded: synergizes”. Also, in the data set with LNCaP cells, the “Cytotoxicity of the combination of TKI and AR-ASO (MTS assay)” value is given as “did not show increased cytoxicity”. `COc1cccc2c1C(=O)c1c(O)c3c(c(O)c1C2=O)C[C@@](O)(C(=O)CO)C[C@@H]3O[C@H]1C[C@H](N)[C@H](O)[C@H](C)O1` [Doxorubicin]: in data set [4] (FIG. 4-6), the “Penetration into tumor spheroids (confocal Z-stacks)” value is “more uniform penetration”. `CNC(=O)c1cc(Oc2ccc(NC(=O)Nc3ccc(Cl)c(C(F)(F)F)c3)cc2)ccn1` [Sorafenib]: in the data set on HCT116-GFPmiR21 cells [5], the “TKI effect on oligo penetration and EGFP produced per cell” value is given as “ineffective”; the “ASO uptake (eGFP activation), FIG. 3” value is given as “Decreased uptake”. As for `Cc1ccc(NC(=O)c2ccc(CN3CCN(C)CC3)cc2)cc1Nc1nccc(-c2cccnc2)n1` [imatinib, 4-[(4-methylpiperazin-1-yl)methyl]-N-(4-methyl-3-{[4-(pyridin-3-yl)pyrimidin-2-yl]amino}phenyl)benzamide], the “Penetration of the anti-mir21 oligo in tumor microspheroids” value in data set [4] (TKI 100 nm-1 uM with oligo) is “increased penetration”. Besides, the “Penetration of the Cy5-labeled anti-Bcl-2 oligo in tumor microspheroids” value in data set [4] (TKI with oligo) is “increased penetration was also seen”. Further, in the data set with HCT116-GFPmiR21 cells [5], the “ASO uptake (eGFP activation), FIG. 3” value is “Increased uptake”. The “EGFP expression in tissue culture” value in the data set with HCT116-GFPmiR21 cells [5] (with anti-mir21 oligo, TKI 100 nm-1 uM) is given as “dramatically increased”. For the same molecule, in the data set on HCT116-GFPmiR21 cells [6], the “ASO release (eGFP activation), FIG. 3” value is reported as “increased release”. For `Cc1cn(-c2cc(NC(=O)c3ccc(C)c(Nc4nccc(-c5cccnc5)n4)c3)cc(C(F)(F)F)c2)cn1` [nilotinib, 4-methyl-N-[3-(4-methyl-1H-imidazol-1-yl)-5-(trifluoromethyl)phenyl]-3-[(4-pyridin-3-ylpyrimidin-2-yl)amino]benzamide], the “TKI effect on oligo penetration and EGFP produced per cell” value in the data set on HCT116-GFPmiR21 cells [5] is listed as “shown to have activity”.

Usually IC50 stands for the point on the concentration scale where inhibition reaches its midpoint.
